Measured values published in PMC11091072, “Targeting bacterial nickel transport with aspergillomarasmine A suppresses virulence-associated Ni-dependent enzymes” (Nature Communications, 2024).
“And” between values parts separate entries of the source, which are not always exact repeats. Identical values can stand only once.

Columns and labels:
[1] = system: struvite crystallization in K. pneumoniae cultures; experiment: Struvite crystal nucleation in artificial urine cultures; format: cell-based, Klebsiella pneumoniae
Source text: A The metal complexed structure, selectivity, and affinity of AMA. The constituents of AMA are labeled L-aspartate (L-Asp) and 2,3-diaminopropionic acid (APA). B Dose-response urease inhibition assays in K. pneumoniae. […] C Dose-response effect of AMA and Zn-AMA on the nucleation of struvite crystals in K. pneumoniae cultures grown in artificial urine. Crystals were examined microscopically in 96-well plates and visually quantified. […] The data represent the representative mean of two replicates. D Quantification of planktonic growth and crystal violet-stained biofilms of K. pneumoniae grown in artificial urine and varying concentrations of Zn-AMA. […] Data represent mean ± s.d. of four technical replicates. E ICP-MS quantification of cellular ^60Ni and ^66Zn content in K. pneumoniae untreated or treated with 200 μM AMA, or Zn-AMA. […] Whole-cell hydrogenase assays were performed by adding benzyl viologen (BV) at a final concentration of 1 mg/mL and monitoring its reduction at an absorbance of 630 nm. Data represent the mean of two technical replicates.
FIG S5 Microscopic detection of struvite crystals grown in artificial urine cultures of K. pneumoniae. Top row, the concentration-dependent effect of AMA on struvite formation. Bottom row, the concentration-dependent effect of Zn-AMA on struvite formation.
Bacteria were grown in 96 well flat-bottom plates for 24h at 37 °C. Brightfield micrographs were taken with a BioTek Cytation cell imaging reader at 4x magnification. Four images were taken per well and were digitally stitched to generate whole-well images. […]

[2] = system: K. pneumoniae urease activity (whole cell); experiment: Checkerboard analysis of Zn-AMA and AHA on urease activity; format: cell-based, Klebsiella pneumoniae
Description: To guide our exploration of the mode of action of Zn-AMA, we investigated whether a chemical-chemical interaction occurs with the urease inhibitor AHA. […] We subsequently performed inductively coupled plasma mass spectrometry (ICP-MS) analyses to evaluate the intracellular Ni^2+ and Zn^2+ content of K. pneumoniae.
K. pneumoniae whole-cell urease activity was determined with artificial urine containing 0.2% (w/v) casamino acids and 0.01% (w/v) phenol red in 96-well plates. For the growth of S. aureus in artificial urine, the medium was supplemented with 10% LB. After 20–24 hours of growth, bacteria were removed using 0.45 μm filter plates, and the final A550 of the medium was measured using a plate reader.
FIG S7 Evaluation of Zn-AMA as a direct inhibitor of urease. A) Checkerboard analysis of Zn-AMA and AHA on urease activity of K.
pneumoniae after growth for 24 h at 37 °C artificial urine. pH is represented by the color scale determined with phenol red. […]

urease = molecular target: T1, urease (Klebsiella pneumoniae subsp. pneumoniae, UniProt A6TE40+A6TE41+A6TE42); experiment: Urease activity in cell-free extracts (NH3 release, indophenol-hypochlorite); format: biochemical; settings: for direct inhibition of urease: cell-free extract
T1 construct: endogenous in cells; host or cells: Klebsiella pneumoniae (ATCC 33495), sonicated and cleared lysate
T1 sequence (A6TE41 whole entry): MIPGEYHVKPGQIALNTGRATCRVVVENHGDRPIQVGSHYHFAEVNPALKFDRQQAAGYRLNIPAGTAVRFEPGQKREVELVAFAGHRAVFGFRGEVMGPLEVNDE
T1 sequence (A6TE40 whole entry): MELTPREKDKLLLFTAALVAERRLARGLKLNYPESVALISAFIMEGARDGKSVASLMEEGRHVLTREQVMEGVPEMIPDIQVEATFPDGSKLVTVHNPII
T1 sequence (A6TE42 whole entry): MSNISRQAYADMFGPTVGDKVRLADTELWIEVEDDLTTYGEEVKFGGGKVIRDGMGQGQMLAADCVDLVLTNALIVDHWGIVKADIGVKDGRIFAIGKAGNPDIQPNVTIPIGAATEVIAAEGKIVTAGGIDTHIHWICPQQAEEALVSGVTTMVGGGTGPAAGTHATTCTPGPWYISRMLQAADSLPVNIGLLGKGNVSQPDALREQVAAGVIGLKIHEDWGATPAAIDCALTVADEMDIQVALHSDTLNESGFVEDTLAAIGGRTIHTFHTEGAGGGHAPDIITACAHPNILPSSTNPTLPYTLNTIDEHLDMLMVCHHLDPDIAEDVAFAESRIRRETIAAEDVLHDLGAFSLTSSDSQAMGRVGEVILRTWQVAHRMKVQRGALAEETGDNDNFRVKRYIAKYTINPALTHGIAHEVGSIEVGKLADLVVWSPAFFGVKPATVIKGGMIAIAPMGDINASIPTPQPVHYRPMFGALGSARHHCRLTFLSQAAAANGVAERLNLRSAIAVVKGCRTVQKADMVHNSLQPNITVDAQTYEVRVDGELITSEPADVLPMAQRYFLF
Description: The cells were subsequently lysed by sonication, and cell debris was removed with centrifugation (20,000 × g, 10 min). […] Liberated NH3 was quantified using the indophenol-hypocholorite reaction as previously described. The total amount of protein was quantified by Bradford assay using bovine serum albumin as standard. Each assay was performed in duplicate wells.
FIG S7 Evaluation of Zn-AMA as a direct inhibitor of urease. A) Checkerboard analysis of Zn-AMA and AHA on urease activity of K. […]
Dose- […]
response curves of fluorofamide, Zn-AMA, and AMA inhibiting the urease-catalyzed release of NH3 quantified with indophenol hypochlorite. The rates of NH3 production were measured over 20 min and were normalized to total protein concentration. Experiments were performed in duplicate. Individual replicates are shown as colored circles.

NikA [3] = molecular target: T2, NikA (Klebsiella pneumoniae, UniProt A6TFA3); format: binding
T2 sequence (A6TFA3 entry or part of it): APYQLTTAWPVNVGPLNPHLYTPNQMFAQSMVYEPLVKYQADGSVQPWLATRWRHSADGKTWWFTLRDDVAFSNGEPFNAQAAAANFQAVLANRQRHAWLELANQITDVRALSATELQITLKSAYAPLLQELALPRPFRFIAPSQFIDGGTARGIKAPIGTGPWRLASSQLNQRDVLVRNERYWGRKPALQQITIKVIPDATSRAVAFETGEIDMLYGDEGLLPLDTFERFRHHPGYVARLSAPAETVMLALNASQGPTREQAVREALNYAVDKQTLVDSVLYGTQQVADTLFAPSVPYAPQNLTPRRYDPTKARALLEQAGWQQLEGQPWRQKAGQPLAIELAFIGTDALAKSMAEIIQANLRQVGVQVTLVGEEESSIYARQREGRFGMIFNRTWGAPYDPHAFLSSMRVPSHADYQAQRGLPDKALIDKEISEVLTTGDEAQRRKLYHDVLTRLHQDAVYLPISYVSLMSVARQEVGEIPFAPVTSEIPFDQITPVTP

NikA [4] = molecular target: T2, NikA; format: cell-based; settings: 250 μM

## N[C@@H](CN[C@@H](CN[C@@H](CC(=O)O)C(=O)O)C(=O)O)C(=O)O.[Zn+2] [Zn-AMA]
[1]; 3.12 μM
  Struvite crystal quantification (count): 25 and 43
[1]; 6.25 μM
  Struvite crystal quantification (count): 42 and 62
[1]; 12 μM
  Struvite crystal quantification (count): 48 and 82
[1]; 50 μM
  Struvite crystal quantification (count): 0
[1]; 100 μM
  Struvite crystal quantification (count): 0
[1]; 200 μM
  Struvite crystal quantification (count): 0
[1]; K. pneumoniae, artificial urine
  effect on struvite crystals: robustly prevented the appearance of struvite crystals
[2]; Zn-AMA 0.39 μM, AHA 0 mM
  Urease-dependent pH change (pH): 8.26
[2]; Zn-AMA 0.39 μM, AHA 0.1 mM
  Urease-dependent pH change (pH): 8.14
[2]; Zn-AMA 0.39 μM, AHA 0.2 mM
  Urease-dependent pH change (pH): 8.05
[2]; Zn-AMA 0.39 μM, AHA 0.4 mM
  Urease-dependent pH change (pH): 7.76
[2]; Zn-AMA 0.39 μM, AHA 0.5 mM
  Urease-dependent pH change (pH): 8.22
[2]; Zn-AMA 0.39 μM, AHA 0.8 mM
  Urease-dependent pH change (pH): 7.29
[2]; Zn-AMA 0.39 μM, AHA 1.6 mM
  Urease-dependent pH change (pH): 6.70
[2]; Zn-AMA 0.78 μM, AHA 0 mM
  Urease-dependent pH change (pH): 8.08
[2]; Zn-AMA 0.78 μM, AHA 0.1 mM
  Urease-dependent pH change (pH): 7.95
[2]; Zn-AMA 0.78 μM, AHA 0.2 mM
  Urease-dependent pH change (pH): 7.81
[2]; Zn-AMA 0.78 μM, AHA 0.4 mM
  Urease-dependent pH change (pH): 7.50
[2]; Zn-AMA 0.78 μM, AHA 0.5 mM
  Urease-dependent pH change (pH): 8.01
[2]; Zn-AMA 0.78 μM, AHA 0.8 mM
  Urease-dependent pH change (pH): 7.03
[2]; Zn-AMA 0.78 μM, AHA 1.6 mM
  Urease-dependent pH change (pH): 6.68
[2]; Zn-AMA 1.56 μM, AHA 0 mM
  Urease-dependent pH change (pH): 7.83
[2]; Zn-AMA 1.56 μM, AHA 0.1 mM
  Urease-dependent pH change (pH): 7.46
[2]; Zn-AMA 1.56 μM, AHA 0.2 mM
  Urease-dependent pH change (pH): 7.19
[2]; Zn-AMA 1.56 μM, AHA 0.4 mM
  Urease-dependent pH change (pH): 6.86
[2]; Zn-AMA 1.56 μM, AHA 0.5 mM
  Urease-dependent pH change (pH): 7.51
[2]; Zn-AMA 1.56 μM, AHA 0.8 mM
  Urease-dependent pH change (pH): 6.64
[2]; Zn-AMA 1.56 μM, AHA 1.6 mM
  Urease-dependent pH change (pH): 6.51
[2]; Zn-AMA 3.12 μM, AHA 0 mM
  Urease-dependent pH change (pH): 7.23
[2]; Zn-AMA 3.12 μM, AHA 0.1 mM
  Urease-dependent pH change (pH): 6.85
[2]; Zn-AMA 3.12 μM, AHA 0.2 mM
  Urease-dependent pH change (pH): 6.78
[2]; Zn-AMA 3.12 μM, AHA 0.4 mM
  Urease-dependent pH change (pH): 6.74
[2]; Zn-AMA 3.12 μM, AHA 0.5 mM
  Urease-dependent pH change (pH): 6.97
[2]; Zn-AMA 3.12 μM, AHA 0.8 mM
  Urease-dependent pH change (pH): 6.56
[2]; Zn-AMA 3.12 μM, AHA 1.6 mM
  Urease-dependent pH change (pH): 6.46
[2]; Zn-AMA 6.25 μM, AHA 0 mM
  Urease-dependent pH change (pH): 6.63
[2]; Zn-AMA 6.25 μM, AHA 0.1 mM
  Urease-dependent pH change (pH): 6.57
[2]; Zn-AMA 6.25 μM, AHA 0.2 mM
  Urease-dependent pH change (pH): 6.55
[2]; Zn-AMA 6.25 μM, AHA 0.4 mM
  Urease-dependent pH change (pH): 6.53
[2]; Zn-AMA 6.25 μM, AHA 0.5 mM
  Urease-dependent pH change (pH): 6.62
[2]; Zn-AMA 6.25 μM, AHA 0.8 mM
  Urease-dependent pH change (pH): 6.47
[2]; Zn-AMA 6.25 μM, AHA 1.6 mM
  Urease-dependent pH change (pH): 6.42
[2]; Zn-AMA 12.5 μM, AHA 0 mM
  Urease-dependent pH change (pH): 6.63
[2]; Zn-AMA 12.5 μM, AHA 0.1 mM
  Urease-dependent pH change (pH): 6.46
[2]; Zn-AMA 12.5 μM, AHA 0.2 mM
  Urease-dependent pH change (pH): 6.52
[2]; Zn-AMA 12.5 μM, AHA 0.4 mM
  Urease-dependent pH change (pH): 6.45
[2]; Zn-AMA 12.5 μM, AHA 0.5 mM
  Urease-dependent pH change (pH): 6.47
[2]; Zn-AMA 12.5 μM, AHA 0.8 mM
  Urease-dependent pH change (pH): 6.43
[2]; Zn-AMA 12.5 μM, AHA 1.6 mM
  Urease-dependent pH change (pH): 6.40
[2]; combination of Zn-AMA and AHA
  interaction with AHA (checkerboard): synergistic
urease; Zn-AMA 0.007813 mM
  Specific activity (cell-free indophenol urease assay): 45.30 nmol/min/mg and 43.25 nmol/min/mg
urease; Zn-AMA 0.015625 mM
  Specific activity (cell-free indophenol urease assay): 43.59 nmol/min/mg and 42.05 nmol/min/mg
urease; Zn-AMA 0.03125 mM
  Specific activity (cell-free indophenol urease assay): 42.91 nmol/min/mg and 40.51 nmol/min/mg
urease; Zn-AMA 0.0625 mM
  Specific activity (cell-free indophenol urease assay): 42.56 nmol/min/mg and 39.66 nmol/min/mg
urease; Zn-AMA 0.125 mM
  Specific activity (cell-free indophenol urease assay): 42.39 nmol/min/mg and 39.32 nmol/min/mg
urease; Zn-AMA 0.25 mM
  Specific activity (cell-free indophenol urease assay): 39.32 nmol/min/mg and 37.78 nmol/min/mg
urease; Zn-AMA 0.5 mM
  Specific activity (cell-free indophenol urease assay): 36.07 nmol/min/mg and 34.19 nmol/min/mg
urease; Zn-AMA 1 mM
  Specific activity (cell-free indophenol urease assay): 31.28 nmol/min/mg and 28.03 nmol/min/mg
urease
  direct inhibition of urease: excluded the direct inhibition of urease
NikA [3]
  fold greater KD (weaker affinity) relative to Ni-(L-His)2: 14 fold
NikA [3]; 37 °C, pH 7.5
  n (stoichiometry, ITC): 0.78
  ∆G: -7.3 kcal/mol
  ∆H: -11.6 kcal/mol
  −T∆S: 4.3 kcal/mol
NikA [3]; read-out: KD for NikA (ITC), 25 mM Tris-HCl, 150 mM NaCl, 0.1% Triton X-100, pH 7.5, 37 °C
  Kd: 6.8 ± 0.4 µM

## N[C@@H](CN[C@@H](CN[C@@H](CC(=O)O)C(=O)O)C(=O)O)C(=O)O [AMA, aspergillomarasmine A]
[1]; 3.12 μM
  Struvite crystal quantification (count): 59 and 42
[1]; 6.25 μM
  Struvite crystal quantification (count): 99 and 82
[1]; 12 μM
  Struvite crystal quantification (count): 74 and 95
[1]; 25 μM
  Struvite crystal quantification (count): 68 and 103
[1]; 50 μM
  Struvite crystal quantification (count): 72 and 91
[1]; 100 μM
  Struvite crystal quantification (count): 70 and 83
[1]; 200 μM
  Struvite crystal quantification (count): 36 and 49
urease; AMA 0.007813 mM
  Specific activity (cell-free indophenol urease assay): 42.56 nmol/min/mg and 44.10 nmol/min/mg
urease; AMA 0.015625 mM
  Specific activity (cell-free indophenol urease assay): 40.68 nmol/min/mg and 41.88 nmol/min/mg
urease; AMA 0.03125 mM
  Specific activity (cell-free indophenol urease assay): 40.85 nmol/min/mg and 42.39 nmol/min/mg
urease; AMA 0.0625 mM
  Specific activity (cell-free indophenol urease assay): 40.85 nmol/min/mg
urease; AMA 0.125 mM
  Specific activity (cell-free indophenol urease assay): 39.49 nmol/min/mg and 40.51 nmol/min/mg
urease; AMA 0.25 mM
  Specific activity (cell-free indophenol urease assay): 37.95 nmol/min/mg and 38.29 nmol/min/mg
urease; AMA 0.5 mM
  Specific activity (cell-free indophenol urease assay): 35.56 nmol/min/mg and 36.75 nmol/min/mg
urease; AMA 1 mM
  Specific activity (cell-free indophenol urease assay): 35.04 nmol/min/mg and 35.73 nmol/min/mg
urease
  direct inhibition of urease: excluded the direct inhibition of urease
NikA [4]
  NikA thermal stability in cells (CETSA): barely detectable at 60 °C
